We go through five molecules from patent US4172130A, “α-AMINOACYL CONTAINING NEW PEPTIDES WITH GASTRIN EFFECTS AND A PROCESS FOR THE PREPARATION THEREOF” (Richter Gedeon Vegyeszeti Gyar RT, priority 1976, dated 1979).

Experiment [1] deals with gastric acid secretion. Put plainly: Gastric acid secretion increasing effect, methods of Ghosh and Schild and Lai, modified by Pissidis and Clark. In kind it is in vivo. To be noted: for Activity, % (gastric acid secretion increasing effect): in comparison with 0.2 μ/100 g i.v. dosage of pentagastrin = 100%. The protocol:
The biological activities of the new compounds according to the invention were tested by the methods of Ghosh and Schild (Br. J. Pharmac. Chemoth. 13, 54 (1958) and Lai (Gut. 5, 327 (1964), modified by Pissidis and Clark (Gut. 8, 196 (1967)). The pharmacological tests have shown that the gastric acid secretion provoked by the new compounds is occasionally higher by 20 to 80% than that provoked by the same dosage of pentagastrin. It is particularly remarkable that the new compounds, in contrast with pentagastrin, are resorbed also from the small intenstine, and, when administered to the small intenstine in a dosage of 20 μg/100 g body weight, exert effects similar to that exerted by a 0.2 μg/100 g i.v. dosage of pentagastrin. […] It is also remarkable that some of the new compounds increase the gastric acid secretion after resorption from the rectum.

Experiment [2] concerns gastric acid secretion. To be noted: in vivo; cited from earlier work.

Peptide text beside a SMILES is read from it. * marks the point of attachment. X2 = CC(C)(C)OC(=O)NOCC(=O)*

For the molecule `CSCC[C@H](NC(=O)[C@H](Cc1c[nH]c2ccccc12)NC(=O)CONC(=O)OC(C)(C)C)C(=O)N[C@@H](CC(=O)O)C(=O)N[C@@H](Cc1ccccc1)C(=O)NOCC(=O)O` [BOC-O-Gly Met OGly-OH, 2-(2-(tert.-Butoxycarbonyl-aminooxy)-acetyl-L-tryptophyl-L-methionyl-L-aspartyl-L-phenylalanyl-aminooxy)-acetic acid], the “Activity, % (gastric acid secretion increasing effect)” value with gastric acid secretion [1] (0.2 μg i.v.) was found to be 25%; in the experiment on gastric acid secretion [1] (20 μg rectal) it was 22%.
With `CC(C)C[C@H](NC(=O)[C@H](Cc1c[nH]c2ccccc12)NC(=O)CONC(=O)OC(C)(C)C)C(=O)N[C@@H](CC(=O)O)C(=O)N[C@@H](Cc1ccccc1)C(N)=O` [BOC-OGly Leu H, 2-(tert.-Butoxycarbonyl-aminooxy)-acetyl-L-tryptophyl-L-leucyl-L-aspartyl-L-phenylalanine-amide] (X2-WLDF-NH2), the “Activity, % (gastric acid secretion increasing effect)” value in the experiment on gastric acid secretion [1] (0.2 μg i.v.) came to 124%; with gastric acid secretion [1] (2.0 μg i.v.), 272%; in the experiment on gastric acid secretion [1] (20 μg intestinal), 6%; in the experiment on gastric acid secretion [1] (20 μg rectal), 68%.
`CSCC[C@H](NC(=O)[C@H](Cc1c[nH]c2ccccc12)NC(=O)CCONC(=O)OC(C)(C)C)C(=O)N[C@@H](CC(=O)O)C(=O)N[C@@H](Cc1ccccc1)C(=O)NOCC(=O)O` [BOC-β-OAla Met OGly-OH, 2-(3-(tert.-Butoxycarbonyl-aminooxy)-propionyl-L-tryptophyl-L-methionyl-L-aspartyl-L-phenylalanyl-aminooxy)-acetic acid]: the “Activity, % (gastric acid secretion increasing effect)” value in the experiment with gastric acid secretion [1] (0.2 μg i.v.) amounted to 32%.
Regarding `CSCC[C@H](NC(=O)[C@H](Cc1c[nH]c2ccccc12)NC(=O)CCNC(=O)OC(C)(C)C)C(=O)N[C@@H](CC(=O)O)C(=O)N[C@@H](Cc1ccccc1)C(N)=O` [pentagastrin, BOC--β--Ala-- Trp--Met--Asp--Phe--NH2, reference compound], the “Activity, % (gastric acid secretion increasing effect)” value with gastric acid secretion [1] (0.2 μg i.v.) came out at 100%. For the same molecule, the “gastric acid secretion when administered enterally” value with gastric acid secretion [1] (enteral, even in higher dosages) is reported as “does not increase the gastric acid secretion”. Also, in the experiment with gastric acid secretion [2], the “activity among known analogs and derivatives of the tetrapeptide-amide / compared with pentagastrin” value is listed as “the most active derivative”.
Turning to “H--Trp--Met--Asp--Phe--NH2: carboxy-terminal tetrapeptide-amide, the biologically active center of gastrin”, the “gastric acid secretion stimulating effect compared with the total hormone (gastrin)” value with gastric acid secretion [2] was “lower by about one order of magnitude”.
